Legend:
[1] = biological target: T1, Insulin-like growth factor 1 receptor (Homo sapiens, UniProt P08069); experiment: Inhibition of IGF1R
[2] = biological target: T1, Insulin-like growth factor 1 receptor; experiment: Inhibition of IGF1R in IGF1R-SAL cells; type: cell-based
[3] = Permeability by PAMPA assay; type: ADME; details: for Papp: read-out: permeability

T1 sequence (P08069 31-736 limits assumed): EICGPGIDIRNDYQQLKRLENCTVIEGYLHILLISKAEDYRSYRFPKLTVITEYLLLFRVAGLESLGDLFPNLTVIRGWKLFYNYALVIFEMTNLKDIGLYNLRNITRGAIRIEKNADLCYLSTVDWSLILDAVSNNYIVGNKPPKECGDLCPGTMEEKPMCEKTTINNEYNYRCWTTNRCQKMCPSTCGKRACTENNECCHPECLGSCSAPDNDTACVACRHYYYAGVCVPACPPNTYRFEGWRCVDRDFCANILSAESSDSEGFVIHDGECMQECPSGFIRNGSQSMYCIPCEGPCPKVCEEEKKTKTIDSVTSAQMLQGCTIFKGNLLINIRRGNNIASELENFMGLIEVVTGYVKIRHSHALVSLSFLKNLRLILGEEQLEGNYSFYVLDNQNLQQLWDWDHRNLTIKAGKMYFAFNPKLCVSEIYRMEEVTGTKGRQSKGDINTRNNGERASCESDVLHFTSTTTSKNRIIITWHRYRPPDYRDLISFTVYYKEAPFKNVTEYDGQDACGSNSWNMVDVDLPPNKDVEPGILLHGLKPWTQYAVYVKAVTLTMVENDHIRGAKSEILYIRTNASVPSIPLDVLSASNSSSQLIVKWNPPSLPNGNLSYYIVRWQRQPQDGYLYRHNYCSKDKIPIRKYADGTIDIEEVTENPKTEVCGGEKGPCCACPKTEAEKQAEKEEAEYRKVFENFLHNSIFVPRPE
T1 sequence (P08069 741-1367 limits assumed): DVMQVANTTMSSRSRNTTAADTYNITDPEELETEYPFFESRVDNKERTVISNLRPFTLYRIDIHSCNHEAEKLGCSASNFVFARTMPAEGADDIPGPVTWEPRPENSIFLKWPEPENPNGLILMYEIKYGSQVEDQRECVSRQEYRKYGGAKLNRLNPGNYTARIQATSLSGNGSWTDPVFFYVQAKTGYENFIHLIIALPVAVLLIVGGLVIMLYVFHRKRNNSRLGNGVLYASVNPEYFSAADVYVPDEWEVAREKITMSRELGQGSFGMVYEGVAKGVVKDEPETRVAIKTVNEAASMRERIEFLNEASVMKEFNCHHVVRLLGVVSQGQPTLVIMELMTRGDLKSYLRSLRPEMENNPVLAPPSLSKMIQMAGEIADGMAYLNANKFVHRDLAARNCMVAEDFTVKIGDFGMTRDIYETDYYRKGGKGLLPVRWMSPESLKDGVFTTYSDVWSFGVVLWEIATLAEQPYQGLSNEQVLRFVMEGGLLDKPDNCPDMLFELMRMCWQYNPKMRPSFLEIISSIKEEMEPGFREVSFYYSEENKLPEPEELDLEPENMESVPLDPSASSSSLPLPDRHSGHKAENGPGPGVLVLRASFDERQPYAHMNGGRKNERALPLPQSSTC

| SMILES | IC50 [1] | IC50 [2] | Papp [3] | permeability [3] |
| --- | --- | --- | --- | --- |
| O=C(Nc1ccc(F)nc1)[C@@H]1CCCN1c1nc(Nc2cc(C3CC3)[nH]n2)c2cccn2n1 | 2.7 nM | 1 nM | 77 ×10⁻⁶ cm/s | – |
| O=C(c1ccc(F)nc1)N1CCC[C@H]1c1nc(Nc2cc(C3CC3)[nH]n2)c2cccn2n1 | – | 162 nM | 72.1 ×10⁻⁶ cm/s | – |
| O=C(c1ccc(F)nc1)N1CCC[C@@H]1c1nc(Nc2cc(C3CC3)[nH]n2)c2cccn2n1 | 8400 nM | – | 93.5 ×10⁻⁶ cm/s | – |
| O=C1CC[C@@H](c2nc(Nc3cc(C4CC4)[nH]n3)c3cccn3n2)N1C(=O)c1ccc(F)nc1 | 11 nM | 508 nM | 60 ×10⁻⁶ cm/s | – |
| O=C(Nc1ccc(F)nc1)C1=C(c2nc(Nc3cc(C4CC4)[nH]n3)c3cccn3n2)CCC1 | 32 nM | 237 nM | 82.2 ×10⁻⁶ cm/s | – |
| O=C(NCc1nc(Nc2cc(C3CC3)n[nH]2)c2cccn2n1)c1ccc(F)nc1 | – | 40 nM | 52.5 ×10⁻⁶ cm/s | – |
| O=C(Nc1ccc(F)nc1)[C@@H]1CCC[C@H]1c1nc(Nc2cc(C3CC3)n[nH]2)c2cccn2n1 (stereo in doubt; (+)-25) | 9.7 nM | 206 nM | 50.9 ×10⁻⁶ cm/s | – |
| O=C(Nc1ccc(F)nc1)[C@@H]1CCC[C@H]1c1nc(Nc2cc(C3CC3)n[nH]2)c2cccn2n1 (stereo in doubt; (-)-25) | 190 nM | 389 nM | – | 85.4 ×10⁻⁶ cm/s |
| C[C@@]1(C(=O)Nc2ccc(F)nc2)CCCN1c1nc(Nc2cc(C3CC3)n[nH]2)c2cccn2n1 [BMS-754807] | – | – | 63.4 ×10⁻⁶ cm/s | – |
